Assay results from US9694016B2 (Novartis AG, priority 2013, dated 2017).
Read-outs that look alike come from different tables or passages of the source.

Biological target: b-Raf (V600E) (Homo sapiens (Human), UniProt P15056, V600E)
Details: read-out: b-Raf IC-50, AlphaScreen
[1] = 60 min pre-incubation, 3 hours reaction
[2] = 60 min pre-incubation, reaction 3 hours at room temperature

Sequence of b-Raf (V600E) (P15056 whole entry V600E): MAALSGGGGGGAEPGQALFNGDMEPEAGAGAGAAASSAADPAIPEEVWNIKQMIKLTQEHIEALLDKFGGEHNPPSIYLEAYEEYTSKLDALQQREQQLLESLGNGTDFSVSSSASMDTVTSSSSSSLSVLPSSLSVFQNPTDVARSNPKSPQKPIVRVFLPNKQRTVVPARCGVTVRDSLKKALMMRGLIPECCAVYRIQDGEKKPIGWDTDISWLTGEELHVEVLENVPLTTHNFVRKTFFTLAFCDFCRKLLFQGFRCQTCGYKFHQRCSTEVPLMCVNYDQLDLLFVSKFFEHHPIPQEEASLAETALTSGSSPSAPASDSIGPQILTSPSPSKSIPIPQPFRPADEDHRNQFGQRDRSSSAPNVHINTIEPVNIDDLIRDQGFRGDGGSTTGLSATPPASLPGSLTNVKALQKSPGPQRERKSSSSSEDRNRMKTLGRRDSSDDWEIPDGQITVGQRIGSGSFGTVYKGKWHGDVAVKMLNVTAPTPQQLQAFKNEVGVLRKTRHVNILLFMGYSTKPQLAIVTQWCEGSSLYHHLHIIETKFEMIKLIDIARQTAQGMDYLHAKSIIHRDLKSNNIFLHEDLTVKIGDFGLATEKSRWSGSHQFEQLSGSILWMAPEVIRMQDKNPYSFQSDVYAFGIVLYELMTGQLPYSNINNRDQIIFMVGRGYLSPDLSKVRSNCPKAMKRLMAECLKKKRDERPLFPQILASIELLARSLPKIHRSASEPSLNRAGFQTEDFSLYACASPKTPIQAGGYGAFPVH

Row | Structure (SMILES) | IC50 [1] [nM] | IC50 [2] [nM] | IC50 (Table 2, 3 hours reaction) [nM]
1 | Cc1ccc(NC(=O)c2ccnc(C(C)(C)C#N)c2)cc1-c1cc(N2CCOCC2)c(OC2CCOCC2)nn1 [Example 584, 2-(2-cyanopropan-2-yl)-N-(4-methyl-3-(5-morpholino-6-((tetrahydro-2H-pyran-4-yl)oxy)pyridazin-3-yl)phenyl)isonicotinamide] | 1.2 | – | –
2 | Cc1ccc(NC(=O)c2cccc(-c3nnco3)c2)cc1-c1cc(N2CCOCC2)c(=O)n(C)c1 [Example 349, N-(4-methyl-3-(1-methyl-5-morpholino-6-oxo-1,6-dihydropyridin-3-yl)phenyl)-3-(1,3,4-oxadiazol-2-yl)benzamide] | – | – | 6.2
3 | CCOc1ncc(-c2cc(NC(=O)c3ccnc(S(C)(=O)=O)c3)ccc2C)cc1N1CCOCC1 [Example 232, N-(3-(6-ethoxy-5-morpholinopyridin-3-yl)-4-methylphenyl)-2-(methylsulfonyl)isonicotinamide] | – | – | 0.8
4 | Cc1ncc(NC(=O)c2cccc(C(F)(F)F)c2)cc1-c1cnc(OCC(F)F)c(N2CCOCC2)c1 [Example 227, N-(6′-(2,2-difluoroethoxy)-2-methyl-5′-morpholino-[3,3′-bipyridin]-5-yl)-3-(trifluoromethyl)benzamide] | – | – | 1.8
5 | Cc1ncc(NC(=O)c2ccnc(C(C)(F)F)c2)cc1-c1cc(C2COCCO2)nc(N2CCOCC2)c1 (centres unmarked) [Example 1166, N-(2′-(1,4-dioxan-2-yl)-2-methyl-6′-morpholino-[3,4′-bipyridin]-5-yl)-2-(1,1-difluoroethyl)isonicotinamide] | – | 3.28 | –
6 | Cc1ncc(NC(=O)c2cccc(S(C)(=O)=O)c2)cc1-c1cc(N2CCOCC2)n(C)c(=O)c1 [Example 509, N-(1′,2-dimethyl-6′-morpholino-2′-oxo-1′,2′-dihydro-[3,4′-bipyridin]-5-yl)-3-(methylsulfonyl)benzamide] | 17.3 | – | –
7 | CCCN(C(=O)c1cccc(C(F)(F)F)c1)c1cnc(C)c(-c2cnc(OC3CCOCC3)c(N3CCOCC3)c2)c1 [Example 330, N-(2-methyl-5′-morpholino-6′-((tetrahydro-2H-pyran-4-yl)oxy)-[3,3′-bipyridin]-5-yl)-N-propyl-3-(trifluoromethyl)benzamide] | – | – | 2400
8 | Cc1ccc(NC(=O)c2cnnc(C3CC3)c2)cc1-c1cc(OCCO)nc(N2CCOCC2)c1 [Example 1162, 6-cyclopropyl-N-(3-(2-(2-hydroxyethoxy)-6-morpholinopyridin-4-yl)-4-methylphenyl)pyridazine-4-carboxamide] | – | 0.38 | –
9 | Cn1cc(-c2cc(C(=O)Nc3cccc(C(F)(F)F)c3)cnc2Cl)cc(N2CCOCC2)c1=O [Example 423, 2-chloro-1′-methyl-5′-morpholino-6′-oxo-N-(3-(trifluoromethyl)phenyl)-1′,6′-dihydro-[3,3′-bipyridine]-5-carboxamide] | – | – | 6
10 | CCOc1nnc(-c2cc(NC(=O)c3ccc(CNC)c(C(F)(F)F)c3)cnc2C)cc1N1CCOCC1 [Example 626, N-(5-(6-ethoxy-5-morpholinopyridazin-3-yl)-6-methylpyridin-3-yl)-4-((methylamino)methyl)-3-(trifluoromethyl)benzamide] | 14 | – | –
11 | Cc1ccc(NC(=O)c2cccc(C(F)F)c2)cc1-c1cc(N2CCOCC2)c(=O)n(C)n1 [Example 655, 3-(difluoromethyl)-N-(4-methyl-3-(1-methyl-5-morpholino-6-oxo-1,6-dihydropyridazin-3-yl)phenyl)benzamide] | 2.2 | – | –
12 | Cc1ncc(NC(=O)c2ccnc(C(C)(F)F)c2)cc1-c1cc(NCCO)nc(N2CCOC[C@H]2C)c1 [Example 1139, (R)-2-(1,1-difluoroethyl)-N-(2′-((2-hydroxyethyl)amino)-2-methyl-6′-(3-methylmorpholino)-[3,4′-bipyridin]-5-yl)isonicotinamide] | – | 14.3 | –
13 | Cc1ccc(NC(=O)c2cccc(C(F)(F)F)c2)cc1-c1nc(N2CCOCC2)c2ncsc2n1 [Example 839, N-(4-methyl-3-(7-morpholinothiazolo[5,4-d]pyrimidin-5-yl)phenyl)-3-(trifluoromethyl)benzamide] | 0.9 | – | –
14 | Cc1ncc(NC(=O)c2ccnc(C(C)(C)C#N)c2)cc1-c1cc(N2CCOCC2)nc(NC[C@H](C)O)n1 [Example 738, (S)-2-(2-cyanopropan-2-yl)-N-(5-(2-((2-hydroxypropyl)amino)-6-morpholinopyrimidin-4-yl)-6-methylpyridin-3-yl)isonicotinamide] | 33.2 | – | –
15 | CCNc1nc(-c2cc(NC(=O)c3ccnc(C(F)(F)CC)c3)ccc2C)cc(N2CCOCC2)n1 [Example 706, 2-(1,1-difluoropropyl)-N-(3-(2-(ethylamino)-6-morpholinopyrimidin-4-yl)-4-methylphenyl)isonicotinamide] | 0.8 | – | –
16 | Cc1ncc(NC(=O)c2ccnc(C(F)(F)F)c2)cc1-c1cc(N2CCOCC2)nc(N2CC(C)(O)C2)c1 [Example 1104, N-(2′-(3-hydroxy-3-methylazetidin-1-yl)-2-methyl-6′-morpholino-[3,4′-bipyridin]-5-yl)-2-(trifluoromethyl)isonicotinamide] | – | 7.64 | –

Second part, the compound after the results:

Row | IC50 [1] [nM] | IC50 [2] [nM] | IC50 (Table 2, 3 hours reaction) [nM] | Structure (SMILES)
17 | – | 0.8 | – | Cc1ncc(NC(=O)c2cncc(C(F)(F)F)c2)cc1-c1cc(N2CCOCC2)c(OCC(F)F)nn1 [Example 917, N-(5-(6-(2,2-difluoroethoxy)-5-morpholinopyridazin-3-yl)-6-methylpyridin-3-yl)-5-(trifluoromethyl)nicotinamide]
18 | – | – | 0.6 | CCOc1ncc(-c2cc(NC(=O)c3ccnc(C(C)(F)F)c3)ccc2C)cc1N1CCOCC1 [Example 233, 2-(1,1-difluoroethyl)-N-(3-(6-ethoxy-5-morpholinopyridin-3-yl)-4-methylphenyl)isonicotinamide]
19 | 0.8 | – | – | CCC(F)(F)c1cc(C(=O)Nc2ccc(C)c(-c3cc(N4CCOCC4)n(C)c(=O)c3)c2)ccn1 [Example 475, 2-(1,1-difluoropropyl)-N-(4-methyl-3-(1-methyl-6-morpholino-2-oxo-1,2-dihydropyridin-4-yl)phenyl)isonicotinamide]
20 | – | 8.02 | – | Cc1ncc(NC(=O)c2ccnc(C3(C#N)CC3)c2)cc1-c1cc(N2CCOCC2)nc(N2CC(C)(O)C2)c1 [Example 1109, 2-(1-cyanocyclopropyl)-N-(2′-(3-hydroxy-3-methylazetidin-1-yl)-2-methyl-6′-morpholino-[3,4′-bipyridin]-5-yl)isonicotinamide]
21 | – | 3.97 | – | Cc1ccc(NC(=O)c2ccnc(C(F)(F)F)c2)cc1-c1cc(N2CCOCC2)nc(NCCO)c1F [Example 1006, N-(3-(3-fluoro-2-((2-hydroxyethyl)amino)-6-morpholinopyridin-4-yl)-4-methylphenyl)-2-(trifluoromethyl)isonicotinamide]
22 | – | – | 3.8 | Cc1ccc(NC(=O)c2cnnc(C(C)(C)F)c2)cc1-c1cc(N2CCOCC2)c(=O)n(C)c1 [Example 363, 6-(2-fluoropropan-2-yl)-N-(4-methyl-3-(1-methyl-5-morpholino-6-oxo-1,6-dihydropyridin-3-yl)phenyl)pyridazine-4-carboxamide]
23 | – | 9.66 | – | Cc1ncc(NC(=O)c2cccc(C(F)(F)F)c2)cc1-c1cnc(CC2(O)CCOCC2)c(N2CCOCC2)c1 [Example 993, N-(6′-((4-hydroxytetrahydro-2H-pyran-4-yl)methyl)-2-methyl-5′-morpholino-[3,3′-bipyridin]-5-yl)-3-(trifluoromethyl)benzamide]
